The NIST ThermoML archive (doi:10.1016/j.jct.2018.08.005)

Assay: xn = mol fraction of the nth substance listed
Conditions: Liquid; for speed of sound: Frequency=3 MHz, Pulse-echo method; for mass density: Vibrating tube method

CCOC(F)(C(F)(F)C(F)(F)C(F)(F)F)C(F)(C(F)(F)F)C(F)(F)F (stereo not given) [2-trifluoromethyl-3-ethoxydodecafluorohexane] + CC(C)OC(C)C
Conditions | mass density, x1 = 0.25 [kg/m3] | mass density, x1 = 0.375 [kg/m3] | mass density, x1 = 0.5 [kg/m3] | mass density, x1 = 0.625 [kg/m3] | mass density, x1 = 0.75 [kg/m3] | speed of sound, x1 = 0.25 [m/s] | speed of sound, x1 = 0.375 [m/s] | speed of sound, x1 = 0.5 [m/s] | speed of sound, x1 = 0.625 [m/s] | speed of sound, x1 = 0.75 [m/s]
293.15 K, 100 kPa | 1053.2 | 1178.3 | 1289.5 | 1391.2 | 1478.4 | 802 | 756.1 | 719.2 | 701.5 | 686.9
293.15 K, 10000 kPa | 1071 | 1197.9 | 1310.6 | 1413.6 | 1501.4 | – | – | – | – | –
293.15 K, 20000 kPa | 1086.1 | 1214.9 | 1328.9 | 1432.8 | 1521.4 | 930.1 | 879 | 839 | 818.1 | 799.8
293.15 K, 30000 kPa | 1099.4 | 1229.8 | 1344.9 | 1449.9 | 1539 | – | – | – | – | –
293.15 K, 40000 kPa | 1111.2 | 1243.1 | 1359.3 | 1465.1 | 1554.8 | 1029.9 | 975.3 | 933 | 909.4 | 888.3
293.15 K, 50000 kPa | 1122.1 | 1255.2 | 1372.4 | 1479 | 1569.2 | – | – | – | – | –
293.15 K, 60000 kPa | 1132.1 | 1266.3 | 1384.4 | 1491.7 | 1582.4 | 1113.8 | 1056.9 | 1012.2 | 988 | 963.7
293.15 K, 70000 kPa | 1141.5 | 1276.8 | 1395.6 | 1503.7 | 1594.8 | – | – | – | – | –
293.15 K, 80000 kPa | 1150.2 | 1286.4 | 1406.1 | 1514.7 | 1606.3 | 1187.2 | 1127.9 | 1081.1 | 1056.3 | 1029.1
293.15 K, 90000 kPa | 1158.4 | 1295.5 | 1416 | 1525.1 | 1617.1 | – | – | – | – | –
293.15 K, 100000 kPa | 1166.2 | 1304.3 | 1425.3 | 1535 | 1627.3 | 1254 | 1190.8 | 1143 | 1116.9 | 1088.5
293.15 K, 110000 kPa | 1173.5 | 1312.4 | 1434.1 | 1544.3 | 1637.1 | – | – | – | – | –
293.15 K, 120000 kPa | 1180.7 | 1320.3 | 1442.6 | 1553.2 | 1646.4 | – | – | – | – | –
293.15 K, 130000 kPa | 1187.4 | 1327.8 | 1450.7 | 1561.8 | 1655.3 | – | – | – | – | –
293.15 K, 140000 kPa | 1193.8 | 1335.1 | 1458.3 | 1569.9 | 1663.8 | – | – | – | – | –
303.15 K, 100 kPa | 1038.3 | 1161.8 | 1271.6 | 1372.4 | 1458.7 | 763.8 | – | 687.9 | 670.9 | 656
303.15 K, 10000 kPa | 1057.2 | 1183 | 1294.5 | 1396.6 | 1483.7 | – | – | – | – | –
303.15 K, 20000 kPa | 1073.6 | – | – | – | – | 898.1 | 848.7 | 812.7 | 793.7 | 773.5
